# According to patent US10246483B2, “Bile acid analogs as FXR/TGR5 agonists and methods of use thereof” (ENANTA PHARMACEUTICALS, INC., priority 2015, dated 2019):
# Target: T1, human FXR (NR1H4) (Homo sapiens, UniProt Q96RI1)
# T1 construct: host or cells: CHO (Chinese hamster ovary) reporter cells
# T1 sequence (Q96RI1 1-486): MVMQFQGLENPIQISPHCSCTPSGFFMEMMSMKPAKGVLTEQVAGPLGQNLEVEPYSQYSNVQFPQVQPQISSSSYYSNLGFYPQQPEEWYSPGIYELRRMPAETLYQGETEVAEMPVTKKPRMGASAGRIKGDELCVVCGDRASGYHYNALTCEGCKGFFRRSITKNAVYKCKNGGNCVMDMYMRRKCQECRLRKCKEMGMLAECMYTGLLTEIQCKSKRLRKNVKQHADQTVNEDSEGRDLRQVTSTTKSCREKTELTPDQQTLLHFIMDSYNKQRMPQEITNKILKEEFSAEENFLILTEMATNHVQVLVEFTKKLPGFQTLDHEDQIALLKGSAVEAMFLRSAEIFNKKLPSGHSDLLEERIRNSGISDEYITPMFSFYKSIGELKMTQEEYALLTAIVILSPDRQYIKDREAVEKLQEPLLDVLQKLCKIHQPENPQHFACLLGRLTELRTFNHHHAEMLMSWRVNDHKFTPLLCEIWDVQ
# Assay: Human FXR (NR1H4) reporter assay (Gal4 promoter driven transactivation, luciferase)
# Type: cell-based
# Source text: Human FXR (NR1H4) Assay Determination of a ligand mediated Gal4 promoter driven transactivation to quantify ligand binding mediated activation of FXR. FXR Reporter Assay kit purchased from Indigo Bioscience (Catalogue number: IB00601) to determine the potency and efficacy of compound developed by Enanta that can induce FXR activation. The principle application of this reporter assay system is to quantify functional activity of human FXR. The assay utilizes non-human mammalian cells, CHO (Chinese hamster ovary) cells engineered to express human NR1H4 protein (referred to as FXR). Reporter cells also incorporate the cDNA encoding beetle luciferase which catalyzes the substrates and yields photon emission. Luminescence intensity of the reaction is quantified using a plate-reading luminometer, Envision. […] Thus, quantifying changes in luciferase expression in the treated reporter cells provides a sensitive surrogate measure of the changes in FXR activity. […] Thirty minutes before intending to quantify FXR activity, remove Detection Substrate and Detection Buffer from the refrigerator and place them in a low-light area so that they may equilibrate to room temperature. […] Set the instrument (Envision) to perform a single 5 second “plate shake” prior to reading the first assay well. Read time may be 0.5 second (500 mSec) per well.
smiles,measurement,setting,value
CC[C@@H]1C2C[C@H](O)CCC2(C)[C@H]2CCC3(C)C([C@H](C)CCC(=O)NC(=N)Nc4ccccc4)CC[C@H]3[C@@H]2[C@@H]1O (some centres unmarked) [Example 1],EC50,,100 to 1000 nM
same,Efficacy (%),"CHO reporter cells expressing human NR1H4, normalized to CDCA set as 100%",248%
